How the values were obtained:
[1] = xn = mol fraction of the nth substance listed; conditions: 101 kPa, Liquid; for mass density: Vibrating tube method; for speed of sound: fixed-path interferometer
[2] = refractive index (Na D-line) (dimensionless); conditions: 298.15 K; 101.33 kPa; Liquid; Standard Abbe refractometry
[3] = 101 kPa, Liquid; for speed of sound: Sing-around technique in a fixed-path interferometer; for mass density: Vibrating tube method

CCCCO [butan-1-ol] + CC(C)CC(C)(C)C
[1], x2 = 0
Conditions | mass density [kg/m3] | speed of sound [m/s]
298.15 K | 805.74 | 1239.9
308.15 K | 798.07 | 1206.6
318.15 K | 790.38 | 1173.4
328.15 K | 782.58 | 1140.4

Cc1ccccc1 [toluene] + CCCCO
[1], x1 = 1
Conditions | mass density [kg/m3] | speed of sound [m/s]
298.15 K | 862.19 | 1305.4
308.15 K | 852.88 | 1262.7
318.15 K | 843.6 | 1220.4
328.15 K | 834.29 | 1178.6

CCCCO [butan-1-ol]
Conditions | refractive index
[2] | 1.39733

[3]
Conditions | mass density [kg/m3] | speed of sound [m/s]
298.15 K | 805.74 | 1239.9
308.15 K | 798.07 | 1206.6
318.15 K | 790.38 | 1173.4
328.15 K | 782.58 | 1140.4

CC(C)CC(C)(C)C [2,2,4-trimethylpentane]
Conditions | refractive index
[2] | 1.38901

[3]
Conditions | mass density [kg/m3] | speed of sound [m/s]
298.15 K | 687.68 | 1082.7
308.15 K | 679.45 | 1041.1
318.15 K | 671.3 | 1000.1
328.15 K | 663.17 | 959.4

CC(C)CC(C)(C)C [2,2,4-trimethylpentane] + Cc1ccccc1
[1]
Conditions | mass density, 298.15 K [kg/m3] | mass density, 308.15 K [kg/m3] | mass density, 318.15 K [kg/m3] | mass density, 328.15 K [kg/m3] | speed of sound, 298.15 K [m/s] | speed of sound, 308.15 K [m/s] | speed of sound, 318.15 K [m/s] | speed of sound, 328.15 K [m/s]
x1 = 0.2055 | 811.87 | 802.88 | 793.92 | 784.96 | 1235.8 | 1193.6 | 1151.9 | 1110.8
x1 = 0.403 | 772.32 | 763.58 | 754.88 | 746.18 | 1184.2 | 1142.3 | 1100.9 | 1060.1
x1 = 0.6062 | 738.6 | 730.06 | 721.58 | 713.11 | 1142.4 | 1100.5 | 1059.3 | 1018.7
x1 = 0.8001 | 711.48 | 703.11 | 694.81 | 686.51 | 1110 | 1068.4 | 1027.2 | 986.7

Cc1ccccc1 [toluene]
Conditions | refractive index
[2] | 1.49393

[3]
Conditions | mass density [kg/m3] | speed of sound [m/s]
298.15 K | 862.19 | 1305.4
308.15 K | 852.88 | 1262.7
318.15 K | 843.6 | 1220.4
328.15 K | 834.29 | 1178.6

Reference: the NIST ThermoML archive (doi:10.1016/j.jct.2013.05.009)
